Source: publication PMC12150283, “Synthesis of new Ag(I) and Cd(II) hydrozanomide-based complexes with antibacterial and anticancer properties” (RSC Advances, 2025)
Read-outs that look alike come from different tables or passages of the source.

Columns and labels:
[1] = tested on: glioblastoma LN-229 cells; assay: MTT cell viability assay; assay type: cell-based, human; conditions: 48 hours of incubation
Procedure: (§1) The glioblastoma cell lines LN-229 and U87 and the reference human normal skin fibroblast BJ were obtained from the American Type Culture Collection (ATCC). Cells were grown as monolayers when cultured in cell culture flasks and cultured in Dulbecco's Modified Eagle Medium (DMEM) – LN-229 and Eagle's Minimum Essential Medium (EMEM) – U87 and BJ, supplemented with 10% (v/v) fetal bovine serum, penicillin (10 000 U mL^−1), streptomycin (10 mg mL^−1) and amphotericin B (250 μg mL^−1). The cells were incubated at 37 °C, 5% CO2 atmosphere. The cells were maintained in the logarithmic growth phase by regular passage at 80% confluence.
(§2) The cytotoxicity of the tested compounds was evaluated against both human glioblastoma LN-229 and U-87 as well as normal BJ cell lines. The cells were plated in 96-well culture plates (2 × 10^4 well) and after 24 h incubation the cells were treated with the tested compounds in the concentration range 1–50 μM. The cells were cultured for the next 48 h. The cytotoxicity of the compounds was evaluated using the MTT colorimetric method as previously described.[28,29] IC50 values were determined using the AAT Bioquest IC50 calculator as the concentration of compounds capable of reducing cell viability by 50%. The experiment was performed in triplicate for each concentration. To examine the cytotoxic effect of compounds on cell morphology, cells were examined under an inverted phase contrast microscope Nikon Eclipse Ti with NIS Element software (Tokyo, Japan).

[2] = tested on: normal skin fibroblast BJ cells; assay: MTT cell viability assay; assay type: cell-based, human; conditions: BJ normal fibroblasts, 48 hours of incubation
Procedure: as §1, §2

[3] = tested on: glioblastoma U87 cells; assay: MTT cell viability assay; assay type: cell-based, human; conditions: 48 hours of incubation
Procedure: as §1, §2

[4] = tested on: L. monocytogenes ATCC 19115; assay: Diffusion-well method, inhibition zones; assay type: cell-based, Listeria monocytogenes; conditions: 500 µg/mL, wells 10 mm
Procedure: (§3) The antibacterial activity of tested samples was assessed against both gram-positive bacteria (Staphylococcus aureus ATCC 25923, Staphylococcus aureus ATCC 6538, Staphylococcus epidermidis ATCC 12228, Enterococcus faecalis ATCC 29212, Listeria monocytogenes ATCC 19115, Bacillus subtilis ATCC 6633, Bacillus cereus ATCC 10876) and gram-negative bacteria (Escherichia coli ATCC 10530, Salmonella typhimurium ATCC 14028). Antibacterial properties were evaluated using both the dilution method (employing DMSO and 96-well plates) and the diffusion-well method (using Mueller Hinton Agar, Merck, Germany).
(§4) 24 hour bacterial cultures with a density of 1–2 × 10^8 CFU mL^−1 were plated (0.1 mL) on Mueller–Hinton Agar (Merck, Germany). Subsequently, wells with a diameter of 10 mm were cut out from and filled with 100 μL of the tested compound at a concentration of 10–500 μg mL^−1 (diluted in DMSO). After an 18-hour incubation at either 30 °C (for Bacillus ssp.) or 37 °C (for other tested microorganisms), the inhibition zones around the wells were measured, and the results were expressed in millimetres (Table S9 ^†).

[5] = tested on: E. coli ATCC 10530; assay: Diffusion-well method, inhibition zones; assay type: cell-based, Escherichia coli; conditions: 500 µg/mL, wells 10 mm
Procedure: as §3, §4

[6] = Time-dependent UV-vis solution stability in DMSO; assay type: physicochemical; conditions: 0 min to 48 h, room temperature
Description: The stability of metal complexes is a crucial property that provides insight into their interactions with biological molecules, as it directly impacts their reactivity, bioavailability, and effectiveness in therapeutic applications. Additionally, the solubility of these complexes in dimethyl sulfoxide (DMSO) is of considerable importance, as solubility data are essential for optimizing storage conditions and ensuring compatibility with biological assays.[39] DMSO, a widely used solvent in drug discovery, serves as a medium that supports the stability and bioavailability of complexes under assay conditions, which is critical for maintaining the integrity of analytical protocols and enabling accurate assessments of biological activity. For the obtained complexes, the time-dependent UV-vis investigations in DMSO (Fig. 5 and S9 ^†) were carried out from 0 min to 48 h (0 min, 30 min, 1 h, 2 h, 3 h, 24 h, 48 h).
The sample solutions (50 μL (1.0 × 10^−3 M)) of the complexes were prepared in DMSO (Sigma Aldrich, ≥99.9%). The absorption spectra of the complexes were measured with increasing time (0 min, 30 min, 60 min, 2 h, 3 h, 24 h, 48 h) at room temperature. All measurements were performed on the Shimadzu UV-2401PC.

[7] = tested on: S. aureus ATCC 25923; assay: Diffusion-well method, inhibition zones; assay type: cell-based, Staphylococcus aureus; conditions: 500 µg/mL, wells 10 mm
Procedure: as §3, §4

[8] = tested on: S. aureus ATCC 6538; assay: Diffusion-well method, inhibition zones; assay type: cell-based, Staphylococcus aureus; conditions: 500 µg/mL, wells 10 mm
Procedure: as §3, §4

[9] = tested on: Escherichia coli ATCC 10530; assay: MIC determination; assay type: cell-based
Procedure: as §3
(§5) The minimum inhibitory concentrations (MICs) of the tested samples were evaluated against a panel of reference microorganisms obtained from the American Type Culture Collection (ATCC), including Gram-negative bacteria (Escherichia coli ATCC 10530, Salmonella typhimurium ATCC 14028), and Gram-positive bacteria (Staphylococcus aureus ATCC 25923, Staphylococcus aureus ATCC 6538, Staphylococcus epidermidis ATCC 12228, Enterococcus faecalis ATCC 29212, Listeria monocytogenes ATCC 19115, Bacillus subtilis ATCC 6633), and one strain (Bacillus cereus ŁOCK 0807) obtained from the Pure Culture of Industrial Microorganisms of the Institute of Fermentation Technology and Microbiology ŁOCK 105 (Łódź, Poland).
(§6) The microorganism cultures with a density of 1.5 × 10^8 CFU mL^−1 (corresponding to a McFarland standard of 0.5) were plated on Mueller–Hinton Agar (Merck, Germany) following the procedures recommended by the European Committee on Antimicrobial Susceptibility Testing (EUCAST).[47] Wells measuring 10 mm in diameter were cut into the medium. The tested compounds were dissolved in a DMSO solution, which was recommended due to their chemical structures. Subsequently, 100 μL of prepared solutions containing the tested compounds at concentrations ranging from x μg mL^−1 to x μg mL^−1 were added to each well. The plates were incubated at 30 °C (for Bacillus subtilis and Bacillus cereus) or 37 °C (for other bacteria) for 18 hours. After incubation, the minimum inhibitory concentration (MIC value) was determined (the lowest concentration of the tested compounds that prevents bacterial growth) and expressed in μg mL^−1. The experiment was conducted in three independent replicates. Ciprofloxacin (Sigma Aldrich, Saint Louis, MO, USA) was used as a reference antimicrobial agent against Gram-negative bacteria, while vancomycin (Sigma Aldrich, Saint Louis, MO, USA) was used as a reference antimicrobial agent against Gram-positive bacteria.

[10] = tested on: Bacillus subtilis ATCC 6633; assay: MIC determination; assay type: cell-based; conditions: 18 h
Procedure: as §3, §5, §6

[11] = tested on: Enterococcus faecalis ATCC 29212; assay: MIC determination; assay type: cell-based; conditions: E. faecalis ATCC 29212; 18 h
Procedure: as §3, §5, §6

[12] = tested on: Staphylococcus aureus ATCC 6538; assay: MIC determination; assay type: cell-based; conditions: S. aureus ATCC 6538; 18 h
Procedure: as §3, §5, §6

[13] = tested on: Bacillus cereus ŁOCK 0807; assay: MIC determination; assay type: cell-based; conditions: Bacillus cereus ŁOCK 0807; 18 h
Procedure: as §3, §5, §6

[14] = tested on: Staphylococcus epidermidis ATCC 12228; assay: MIC determination; assay type: cell-based; conditions: S. epidermidis ATCC 12228; 18 h
Procedure: as §3, §5, §6

[15] = tested on: Listeria monocytogenes ATCC 19115; assay: MIC determination; assay type: cell-based
Procedure: as §3, §5, §6

[16] = tested on: Staphylococcus aureus ATCC 25923; assay: MIC determination; assay type: cell-based; conditions: S. aureus ATCC 25923; 18 h
Procedure: as §3, §5, §6

[17] = tested on: Salmonella typhimurium ATCC 14028; assay: MIC determination; assay type: cell-based; conditions: S. typhimurium ATCC 14028; 18 h
Procedure: as §3, §5, §6

[18] = tested on: B. cereus ŁOCK 0807; assay: Diffusion-well method, inhibition zones; assay type: cell-based, Bacillus cereus; conditions: 500 µg/mL, wells 10 mm
[19] = tested on: B. subtilis ATCC 6633; assay: Diffusion-well method, inhibition zones; assay type: cell-based, Bacillus subtilis; conditions: 500 µg/mL, wells 10 mm
Procedure: as §3, §4

[20] = tested on: E. faecalis ATCC 29212; assay: Diffusion-well method, inhibition zones; assay type: cell-based, Enterococcus faecalis; conditions: 500 µg/mL, wells 10 mm
Procedure: as §3, §4

[21] = tested on: S. Typhimurium ATCC 14028; assay: Diffusion-well method, inhibition zones; assay type: cell-based, Salmonella typhimurium; conditions: 500 µg/mL, wells 10 mm
Procedure: as §3, §4

[22] = tested on: Enterococcus faecalis ATCC 29212; parameters: method as in earlier work; conditions: pure ligands, E. faecalis ATCC 29212; previous study ref 29; cited from earlier work
[23] = tested on: Staphylococcus epidermidis ATCC 12228; parameters: method as in earlier work; conditions: pure ligands, S. epidermidis ATCC 12228; previous study ref 29; cited from earlier work
[24] = tested on: Staphylococcus aureus ATCC 25923; parameters: method as in earlier work; conditions: pure ligands, S. aureus ATCC 25923; previous study ref 29; cited from earlier work
[25] = tested on: Salmonella typhimurium ATCC 14028; parameters: method as in earlier work; conditions: pure ligands, S. typhimurium ATCC 14028; previous study ref 29; cited from earlier work
[26] = Escherichia coli ATCC 10530, 18 h
[27] = Listeria monocytogenes ATCC 19115, 18 h

SMILES | IC50 [1] [µM] | IC50 [2] [µM] | IC50 [3] [µM] | Inhibition zone [4] [mm] | Inhibition zone [5] [mm] | hypochromic effect [6] [%] | Inhibition zone [7] [mm] | Inhibition zone [8] [mm] | MIC [9, 26] [µg/mL] | MIC [10] [µg/mL] | MIC [11] [µg/mL] | MIC [12] [µg/mL] | MIC [13] [µg/mL] | MIC [14] [µg/mL] | MIC [15, 27] [µg/mL] | MIC [16] [µg/mL] | MIC [17] [µg/mL] | Inhibition zone [18] [mm] | Inhibition zone [19] [mm] | Inhibition zone [20] [mm] | also measured
NC(=NN=Cc1ccccc1)c1cc(Cl)ccn1.O=[N+]([O-])[O-].[Ag+] [Complex 3, AgL3NO3] | > 50 | > 50 | 32 ± 7.08 | 19 | 20 | 2.31 | 15 | 15 | 10 | 10 | 50 | 50 | 50 | 250 | 10 | 100 | 500 | 18 | 17 | 13 | –
NC(=NN=Cc1ccc([N+](=O)[O-])cc1)c1cccc(Cl)n1.O=[N+]([O-])[O-].[Ag+] [Complex 2, AgL2NO3] | 37.2 ± 6.55 | 14.5 ± 2.82 | > 50 | 19 | 20 | – | 19 | 22 | 10 | 50 | 50 | 50 | 50 | > 500 | 10 | 50 | 50 | 18 | 16 | 14 | MIC ([9]; Escherichia coli): 10 µg/mL; MIC ([15]; Listeria monocytogenes): 10 µg/mL; Inhibition zone [21]: 19 mm
N/C(=N\N=C\c1ccccc1)c1cncc(N2CCCC2)n1 [Complex L6, (benzylidene)-6-(pyrrolidin-1-yl)pyrazine-2-carbohydra-zonamide] | – | – | – | – | – | – | – | – | – | – | – | – | – | – | – | – | – | – | – | – | IC50 ([1]; Homo sapiens): > 50 µM; IC50 ([2]; Homo sapiens): 42.4 ± 6.17 µM; IC50 ([3]; Homo sapiens, U-87 MG): > 50 µM; MIC [22]: 500 µg/mL; MIC [23]: 500 µg/mL; MIC [24]: 500 µg/mL; MIC [25]: 500 µg/mL
NC(=NN=Cc1ccc([N+](=O)[O-])cc1)c1cccc(Cl)n1.NC(=NN=Cc1ccc([N+](=O)[O-])cc1)c1cccc(Cl)n1.[Cd+2].[Cl-].[Cl-] [Complex 7, Cd (L2)2Cl2] | > 50 | 41.7 ± 4.18 | > 50 | – | 12 | 27.7 | 15 | 13 | 500 | > 500 | > 500 | 500 | > 500 | > 500 | > 500 | 100 | > 500 | – | – | – | shift of peak maxima [6]: 15 nm
